Data reported in patent US9463256B2, “Pretargeting kit, method and agents used therein” (KONINKLIJKE PHILIPS N.V., priority 2010, dated 2016).

Columns and labels:
[1] = test system: LS174T tumor model; assay: Biodistribution experiments in tumor bearing mice pretargeted with CC49-TCO constructs; type: in vivo, Nude female Balb/C mice; settings: 3 h after injection
Experimental: (§1) LS174T tumor model. The human colon cancer cell line LS174T was obtained from the ATCC and maintained in Eagle's minimal essential medium (Sigma) supplemented with 10% heat inactivated fetal calf serum (Gibco), penicillin (100 U/mL), streptomycin (100 μg/mL) and 2 mM Glutamax. Nude female Balb/C mice (20-25 g body weight, Charles River Laboratories) were inoculated subcutaneously with 5×10^6 cells in 100 μL sterile PBS.
Dual isotope biodistribution experiments were performed by injecting tumor bearing mice (n=3) intravenously with ^125I-labeled CC49-TCO constructs with and without PEG10 spacer (100 μg/100 μL per mouse, ca. […] 0.8 MBq). Three hours after tetrazine administration, the animals were anesthetized with isoflurane and sacrificed by cervical dislocation. Blood was withdrawn by heart puncture and organs and tissues of interest were harvested, blotted dry and weighed. The radioactivity of the samples was measured in a γ-counter along with standards to determine the % ID/gram. The energy windows were set to 10-80 keV and 100-510 keV for ^125I and ^111In, respectively.

[2] = test system: LS174T tumor model; assay: SPECT/CT imaging of tumor-bearing mice; type: in vivo
Experimental: as §1
Tumor-bearing mice were injected with ^111In-tetrazine 28 (21 μg/75 μL per mouse, 20-50 MBq) 3 or 4 days after receiving 100 μg of a CC49-TCO construct without PEG10 spacer. Approximately 1 h later, the mice were anesthetized and positioned on an animal bed equipped with a nose cone for anesthesia and a sensor for respiratory monitoring. Single photon emission computed tomography (SPECT) was performed 2 h post tetrazine injection with a four-headed multi-pinhole small animal SPECT/CT imaging system (NanoSPECT, Bioscan Inc.). The SPECT acquisition (1 h total) was performed with 1.4 mm diameter pinholes and a 120-140 sec acquisition time per view (24 projections). The energy window for ^111In was set at 245 keV±15% and 171 keV±20%. Two-to-four days after the first scan, the mice were euthanized by anesthesia overdose and a second SPECT/CT scan was acquired overnight. Prior to each SPECT session a CT scan (2 sec per projection, 360 projections) was performed to obtain anatomical information on radioactivity distribution. After the acquisition, the data was reconstructed iteratively with the manufacturer's software (InVivoScope 1.39, patch 1). Regions of interest (ROIs) were drawn manually in triplicate for tumor, liver, kidney and thigh muscle. A phantom filled with a known amount of ^111In was used to calibrate the scanner for tissue radioactivity quantification. The image of three mice injected with CC49-TCO-O minor (CC49-20b), CC49-TCO-O major (CC49-20a) and CC49-TCO-C minor (CC49-14b) on a representative time scale are depicted in FIG. 13 A-C, respectively.
FIG. 13: (left) SPECT/CT projections of live mice 2 h after injection of ^111In-tetrazine 28 (21 μg/75 μL per mouse, ca. 40 MBq), 3-4 days after the administration of (A) CC49-TCO-O minor (CC49-20b), (B) CC49-TCO-O major (CC49-20a) or (C) CC49-TCO-C minor (CC49-14b) (100 μg/100 μL per mouse). (Right), post mortem SPECT/CT scans of the same mice 2-4 days after the first imaging session. White arrows indicate tumors.

[3] = test system: LS174T tumor model; assay: Tumor targeting of CC49-TCO (20b) constructs; type: in vivo, Nude female Balb/C mice; settings: 3 h post-injection
Experimental: as §1
[…] The mice that received ^125I—CC49 were sacrificed 4 days post mAb injection. The mice that received ^125I—CC49-TCO 20b were injected with ^111In-DOTA-tetrazine 28 at 72 h post-mAb injection (25 eq. with respect to mAb, ca. 0.8 MBq) and were sacrificed 3 h after tetrazine injection. At the time of sacrifice, blood was collected by heart puncture and organs and tissues of interest were harvested, blotted dry, weighed and added with 1 mL PBS. The radioactivity in all samples was measured in a gamma-counter (Wizard 3, Perkin Elmer) with a dual-isotope protocol (energy windows set to 10-80 keV and 100-510 keV for ^125I and ^111In, respectively) along with standards to determine the percent injected dose per gram tissue (% ID/g).

[4] = 1 day pretargeting with CC49-14b
[5] = 1 day pretargeting with CC49-20a
[6] = 1 day pretargeting with CC49-20b
[7] = 3 days pretargeting with CC49-14b
[8] = 3 days pretargeting with CC49-20a
[9] = 3 days pretargeting with CC49-20b
[10] = mice pretreated with CC49-TCO(8.5) 72 h before
[11] = mice pretreated with CC49-TCO(12.7) 72 h before
[12] = mice pretreated with CC49-TCO(18.2) 72 h before

O=C([O-])CN1CCN(CC(=O)[O-])CCN(CC(=O)NCCOCCOCCOCCOCCOCCOCCOCCOCCOCCOCCOCCNC(=O)CCCC(=O)Nc2ccc(-c3nnc(-c4ccccn4)nn3)nc2)CCN(CC(=O)[O-])CC1.[111In+3] [^111In-tetrazine 28]
^111In-tetrazine in Blood [1, 4]: 1.12 ± 0.09 % ID/gram
^111In-tetrazine in Bone [1, 4]: 0.27 ± 0.08 % ID/gram
^111In-tetrazine in Brain [1, 4]: 0.05 ± 0.01 % ID/gram
^111In-tetrazine in Heart [1, 4]: 0.46 ± 0.12 % ID/gram
^111In-tetrazine in Kidney [1, 4]: 3.12 ± 0.33 % ID/gram
^111In-tetrazine in Liver [1, 4]: 1.17 ± 0.35 % ID/gram
^111In-tetrazine in Lung [1, 4]: 0.79 ± 0.24 % ID/gram
^111In-tetrazine in Muscle [1, 4]: 0.22 ± 0.07 % ID/gram
^111In-tetrazine in Spleen [1, 4]: 0.53 ± 0.14 % ID/gram
^111In-tetrazine in Tumor [1, 4]: 2.59 ± 0.35 % ID/gram
^111In-tetrazine in Blood [1, 5]: 2.39 ± 1.77 % ID/gram
^111In-tetrazine in Bone [1, 5]: 0.33 ± 0.16 % ID/gram
^111In-tetrazine in Brain [1, 5]: 0.10 ± 0.06 % ID/gram
^111In-tetrazine in Heart [1, 5]: 0.84 ± 0.71 % ID/gram
^111In-tetrazine in Kidney [1, 5]: 2.84 ± 0.35 % ID/gram
^111In-tetrazine in Liver [1, 5]: 2.05 ± 1.03 % ID/gram
^111In-tetrazine in Lung [1, 5]: 1.13 ± 0.55 % ID/gram
^111In-tetrazine in Muscle [1, 5]: 0.33 ± 0.22 % ID/gram
^111In-tetrazine in Spleen [1, 5]: 0.83 ± 0.46 % ID/gram
^111In-tetrazine in Tumor [1, 5]: 2.40 ± 0.16 % ID/gram
^111In-tetrazine in Blood [1, 6]: 1.61 ± 0.45 % ID/gram
^111In-tetrazine in Bone [1, 6]: 0.40 ± 0.05 % ID/gram
^111In-tetrazine in Brain [1, 6]: 0.07 ± 0.01 % ID/gram
^111In-tetrazine in Heart [1, 6]: 0.50 ± 0.04 % ID/gram
^111In-tetrazine in Kidney [1, 6]: 3.39 ± 0.84 % ID/gram
^111In-tetrazine in Liver [1, 6]: 1.41 ± 0.45 % ID/gram
^111In-tetrazine in Lung [1, 6]: 0.97 ± 0.16 % ID/gram
^111In-tetrazine in Muscle [1, 6]: 0.24 ± 0.06 % ID/gram
^111In-tetrazine in Spleen [1, 6]: 0.65 ± 0.12 % ID/gram
^111In-tetrazine in Tumor [1, 6]: 3.42 ± 0.40 % ID/gram
^111In-tetrazine in Blood [1, 7]: 0.54 ± 0.11 % ID/gram
^111In-tetrazine in Bone [1, 7]: 0.20 ± 0.07 % ID/gram
^111In-tetrazine in Brain [1, 7]: 0.03 ± 0.01 % ID/gram
^111In-tetrazine in Heart [1, 7]: 0.24 ± 0.07 % ID/gram
^111In-tetrazine in Kidney [1, 7]: 2.82 ± 0.28 % ID/gram
^111In-tetrazine in Liver [1, 7]: 0.84 ± 0.21 % ID/gram
^111In-tetrazine in Lung [1, 7]: 0.50 ± 0.11 % ID/gram
^111In-tetrazine in Muscle [1, 7]: 0.16 ± 0.04 % ID/gram
^111In-tetrazine in Spleen [1, 7]: 0.34 ± 0.09 % ID/gram
^111In-tetrazine in Tumor [1, 7]: 2.76 ± 1.36 % ID/gram
^111In-tetrazine in Blood [1, 8]: 0.79 ± 0.39 % ID/gram
^111In-tetrazine in Bone [1, 8]: 0.15 ± 0.00 % ID/gram
^111In-tetrazine in Brain [1, 8]: 0.26 ± 0.11 % ID/gram
^111In-tetrazine in Heart [1, 8]: 0.30 ± 0.03 % ID/gram
^111In-tetrazine in Kidney [1, 8]: 3.16 ± 0.57 % ID/gram
^111In-tetrazine in Liver [1, 8]: 0.88 ± 0.13 % ID/gram
^111In-tetrazine in Lung [1, 8]: 0.58 ± 0.07 % ID/gram
^111In-tetrazine in Muscle [1, 8]: 0.21 ± 0.02 % ID/gram
^111In-tetrazine in Spleen [1, 8]: 0.43 ± 0.03 % ID/gram
^111In-tetrazine in Tumor [1, 8]: 3.11 ± 0.80 % ID/gram
^111In-tetrazine in Blood [1, 9]: 0.59 ± 0.10 % ID/gram
^111In-tetrazine in Bone [1, 9]: 0.16 ± 0.02 % ID/gram
^111In-tetrazine in Brain [1, 9]: 0.03 ± 0.01 % ID/gram
^111In-tetrazine in Heart [1, 9]: 0.22 ± 0.03 % ID/gram
^111In-tetrazine in Kidney [1, 9]: 2.59 ± 0.24 % ID/gram
^111In-tetrazine in Liver [1, 9]: 0.64 ± 0.06 % ID/gram
^111In-tetrazine in Lung [1, 9]: 0.46 ± 0.07 % ID/gram
^111In-tetrazine in Muscle [1, 9]: 0.18 ± 0.09 % ID/gram
^111In-tetrazine in Spleen [1, 9]: 0.35 ± 0.08 % ID/gram
^111In-tetrazine in Tumor [1, 9]: 2.56 ± 0.65 % ID/gram
^111In-tetrazine uptake in tumor (SPECT/CT) ([2]; 3 days after pre-treatment with CC49-TCO-O (both major and minor forms)): high ^111In-tetrazine uptake in tumor
radioactivity uptake (SPECT/CT) ([2]; after the administration of CC49-TCO-C minor, 4 days delay between the two treatments): rather low radioactivity uptake
signal in the tumor at late scan (SPECT/CT) ([2]; mice given CC49-TCO-C minor, 2 days after the early scan): still present
tumor radioactivity at late scan (SPECT/CT) ([2]; mice pre-treated with CC49-TCO 0, 72-96 h after ^111In-tetrazine injection): still highly radioactive
^111In-tetrazine 28 in Blood [3, 10]: 0.45 ± 0.14 % ID/g
^111In-tetrazine 28 in Bone [3, 10]: 0.10 ± 0.03 % ID/g
^111In-tetrazine 28 in Brain [3, 10]: 0.02 ± 0.01 % ID/g
^111In-tetrazine 28 in Heart [3, 10]: 0.16 ± 0.03 % ID/g
^111In-tetrazine 28 in Kidney [3, 10]: 1.64 ± 0.28 % ID/g
^111In-tetrazine 28 in Liver [3, 10]: 0.44 ± 0.12 % ID/g
^111In-tetrazine 28 in Lung [3, 10]: 0.42 ± 0.06 % ID/g
^111In-tetrazine 28 in Muscle [3, 10]: 0.11 ± 0.05 % ID/g
^111In-tetrazine 28 in Spleen [3, 10]: 0.25 ± 0.05 % ID/g
^111In-tetrazine 28 in Tumor [3, 10]: 3.72 ± 1.45 % ID/g
^111In-tetrazine 28 in Blood [3, 11]: 0.37 ± 0.28 % ID/g
^111In-tetrazine 28 in Bone [3, 11]: 0.08 ± 0.02 % ID/g
^111In-tetrazine 28 in Brain [3, 11]: 0.01 ± 0.01 % ID/g
^111In-tetrazine 28 in Heart [3, 11]: 0.13 ± 0.05 % ID/g
^111In-tetrazine 28 in Kidney [3, 11]: 1.25 ± 0.24 % ID/g
^111In-tetrazine 28 in Liver [3, 11]: 0.29 ± 0.12 % ID/g
^111In-tetrazine 28 in Lung [3, 11]: 0.34 ± 0.10 % ID/g
^111In-tetrazine 28 in Muscle [3, 11]: 0.05 ± 0.00 % ID/g
^111In-tetrazine 28 in Spleen [3, 11]: 0.20 ± 0.06 % ID/g
^111In-tetrazine 28 in Tumor [3, 11]: 3.36 ± 1.69 % ID/g
^111In-tetrazine 28 in Blood [3, 12]: 0.12 ± 0.03 % ID/g
^111In-tetrazine 28 in Bone [3, 12]: 0.10 ± 0.02 % ID/g
^111In-tetrazine 28 in Brain [3, 12]: 0.04 ± 0.05 % ID/g
^111In-tetrazine 28 in Heart [3, 12]: 0.09 ± 0.03 % ID/g
^111In-tetrazine 28 in Kidney [3, 12]: 2.15 ± 0.17 % ID/g
^111In-tetrazine 28 in Liver [3, 12]: 0.26 ± 0.05 % ID/g
^111In-tetrazine 28 in Lung [3, 12]: 0.29 ± 0.01 % ID/g
^111In-tetrazine 28 in Muscle [3, 12]: 0.29 ± 0.43 % ID/g
^111In-tetrazine 28 in Spleen [3, 12]: 0.20 ± 0.02 % ID/g
^111In-tetrazine 28 in Tumor [3, 12]: 1.21 ± 0.22 % ID/g
